Data as given in paper PMC10879502, “Linking ATP and allosteric sites to achieve superadditive binding with bivalent EGFR kinase inhibitors” (Communications Chemistry, 2024).

Assays:
[1] = molecular target: QSK (Homo sapiens, UniProt Q9Y2K2); assay: KINOMEscan; type: binding; details: 1 μM
[2] = molecular target: T1, TNNI3K (Homo sapiens, UniProt Q59H18); assay: KINOMEscan; type: binding; details: 1 μM
T1 construct: purchased Eurofins DiscoverX Corporation

[3] = molecular target: T2, ABL1(T315I)-nonphosphorylated (Homo sapiens, UniProt P00519, T315I); assay: KINOMEscan; type: binding; details: 1 μM
T2 construct: purchased Eurofins DiscoverX Corporation

[4] = molecular target: T3, IKK-epsilon (Homo sapiens, UniProt Q14164); assay: KINOMEscan; type: binding; details: 1 μM
T3 construct: purchased Eurofins DiscoverX (KINOMEscan)

[5] = molecular target: T4, MEK4 (Homo sapiens, UniProt P45985); assay: KINOMEscan; type: binding; details: 1 μM
T4 construct: purchased Eurofins DiscoverX Corporation
T4 sequence (P45985 whole entry): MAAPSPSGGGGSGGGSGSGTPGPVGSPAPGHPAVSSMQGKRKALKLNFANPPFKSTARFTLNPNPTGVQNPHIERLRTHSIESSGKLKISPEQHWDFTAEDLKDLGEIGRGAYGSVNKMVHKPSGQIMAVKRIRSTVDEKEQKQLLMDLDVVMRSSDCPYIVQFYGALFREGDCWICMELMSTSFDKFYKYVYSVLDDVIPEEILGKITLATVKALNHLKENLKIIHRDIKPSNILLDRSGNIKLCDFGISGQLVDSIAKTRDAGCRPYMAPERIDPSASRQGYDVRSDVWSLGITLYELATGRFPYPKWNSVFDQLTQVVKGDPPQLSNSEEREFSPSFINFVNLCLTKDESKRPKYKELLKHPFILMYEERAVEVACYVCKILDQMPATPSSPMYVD

[6] = molecular target: PIK3C2G (Homo sapiens, UniProt O75747); assay: KINOMEscan; type: binding; details: 1 μM
[7] = molecular target: CSNK1A1 (Homo sapiens, UniProt P48729); assay: KINOMEscan; type: binding; details: 1 μM
[8] = molecular target: T5, DRAK2 (Homo sapiens, UniProt O94768); assay: KINOMEscan; type: binding; details: 1 μM
T5 construct: purchased Eurofins DiscoverX Corporation
T5 sequence (O94768 whole entry): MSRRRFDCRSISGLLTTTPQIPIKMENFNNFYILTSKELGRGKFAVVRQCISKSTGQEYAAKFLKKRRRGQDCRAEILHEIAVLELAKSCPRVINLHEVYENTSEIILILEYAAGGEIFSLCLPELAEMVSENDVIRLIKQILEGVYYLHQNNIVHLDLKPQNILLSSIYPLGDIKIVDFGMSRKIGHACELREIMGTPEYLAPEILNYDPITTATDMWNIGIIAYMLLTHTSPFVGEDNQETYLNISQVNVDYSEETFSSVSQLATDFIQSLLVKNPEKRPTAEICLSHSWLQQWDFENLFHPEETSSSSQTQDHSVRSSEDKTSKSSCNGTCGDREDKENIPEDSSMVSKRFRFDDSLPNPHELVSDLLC

[9] = molecular target: PRKX (Homo sapiens, UniProt P51817); assay: KINOMEscan; type: binding; details: 1 μM
[10] = molecular target: T6, MAP4K3 (Homo sapiens, UniProt Q8IVH8); assay: KINOMEscan; type: binding; details: 1 μM
T6 construct: purchased Eurofins DiscoverX Corporation
T6 sequence (Q8IVH8 whole entry): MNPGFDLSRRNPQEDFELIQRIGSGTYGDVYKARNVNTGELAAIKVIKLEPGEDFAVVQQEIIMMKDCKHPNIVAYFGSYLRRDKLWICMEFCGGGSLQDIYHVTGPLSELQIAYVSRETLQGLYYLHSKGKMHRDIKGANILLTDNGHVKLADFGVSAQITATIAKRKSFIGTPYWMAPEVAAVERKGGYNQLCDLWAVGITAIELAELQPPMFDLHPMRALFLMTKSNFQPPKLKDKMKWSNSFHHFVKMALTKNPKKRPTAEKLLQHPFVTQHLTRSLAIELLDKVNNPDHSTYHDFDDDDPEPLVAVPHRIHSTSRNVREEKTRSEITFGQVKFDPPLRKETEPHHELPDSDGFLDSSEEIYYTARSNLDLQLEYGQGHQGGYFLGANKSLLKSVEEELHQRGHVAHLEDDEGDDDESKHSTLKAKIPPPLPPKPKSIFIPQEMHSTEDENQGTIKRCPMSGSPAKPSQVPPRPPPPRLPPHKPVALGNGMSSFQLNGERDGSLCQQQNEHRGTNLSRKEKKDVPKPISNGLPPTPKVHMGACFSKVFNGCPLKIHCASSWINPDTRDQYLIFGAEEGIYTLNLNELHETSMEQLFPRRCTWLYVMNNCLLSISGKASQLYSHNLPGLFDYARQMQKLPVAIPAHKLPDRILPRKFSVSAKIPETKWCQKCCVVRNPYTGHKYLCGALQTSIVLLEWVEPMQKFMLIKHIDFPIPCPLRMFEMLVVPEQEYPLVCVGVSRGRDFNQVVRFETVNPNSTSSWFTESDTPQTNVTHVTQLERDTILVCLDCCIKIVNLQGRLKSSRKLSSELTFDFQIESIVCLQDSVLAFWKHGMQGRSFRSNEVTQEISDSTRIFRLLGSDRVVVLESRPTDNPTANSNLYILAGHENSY

[11] = molecular target: ERBB2 (Homo sapiens, UniProt P04626); assay: KINOMEscan; type: binding; details: 1 μM
[12] = molecular target: T7, EGFR [T790M/L858R] cytoplasmic domain (669–1210) (Homo sapiens, UniProt P00533, L858R/T790M); assay: Time-dependent kinase inhibition assay (Sox-based substrate); type: biochemical; details: LRTM, enzyme 2.0 nM, 1 mM ATP
T7 construct: EGFR [T790M/L858R] cytoplasmic domain (669–1210), GST-tagged, Carna; purchased Carna 08-510
Experimental: Biochemical assays were performed with commercially available EGFR WT, cytoplasmic domain (669–1210), GST-tagged, Carna (Cat#/Lot#: 08-115/21CBS-0127H), EGFR [L858R], cytoplasmic domain (668-end), GST-tagged, SignalChem (Cat#/Lot#: E10-122BG/D2411-4), EGFR [T790M/L858R] cytoplasmic domain (669–1210), GST-tagged, Carna (Cat#/Lot#: 08-510/12CBS-0765M). […] BSA was not included in this experiment to prevent interference with irreversible inhibitor characterization via off-target binding. All reactions were run for 240 min at 30 °C. Time-dependent fluorescence from the Sox-based substrate was monitored in PerkinElmer ProxiPlate-384 Plus, white shallow well microplates (Cat. #6008280) Biotek Synergy Neo 2 microplate reader with excitation (360 nm) and emission (485 nm) wavelengths. 4 was dosed between 0 and 10 µM in 24-point curves with 1.5-fold dilutions. Fluorescence, determined with identical reactions but lacking purified enzyme or crude cell lysate was subtracted from the total fluorescence signal for each time point, with both determined in duplicate, to obtain corrected relative fluorescence units (RFU). Corrected RFU values then were plotted vs. time and the reaction velocity for the first ~40 min (initial reaction rates) was determined from the slope using GraphPad Prism (La Jolla, CA) with units of RFU/min.

[13] = molecular target: PKN2 (Homo sapiens, UniProt Q16513); assay: KINOMEscan; type: binding; details: 1 μM
[14] = molecular target: ERK3 (Homo sapiens, UniProt Q16659); assay: KINOMEscan; type: binding; details: 1 μM
[15] = molecular target: EGFR(L747-E749del+A750P) (Homo sapiens, UniProt P00533, A750P/DEL747-749); assay: KINOMEscan; type: binding; details: 1 μM
[16] = molecular target: PLK2 (Homo sapiens, UniProt Q9NYY3); assay: KINOMEscan; type: binding; details: 1 μM
[17] = molecular target: T8, ABL1(F317I)-nonphosphorylated (Homo sapiens, UniProt P00519, F317I); assay: KINOMEscan; type: binding; details: 1 μM
T8 construct: purchased Eurofins DiscoverX Corporation

[18] = molecular target: PAK6 (Homo sapiens, UniProt Q9NQU5); assay: KINOMEscan; type: binding; details: 1 μM
[19] = molecular target: RET(V804M) (Homo sapiens, UniProt P07949, V804M); assay: KINOMEscan; type: binding; details: 1 μM
[20] = molecular target: WNK2 (Homo sapiens, UniProt Q9Y3S1); assay: KINOMEscan; type: binding; details: 1 μM
[21] = molecular target: T9, FRK (Homo sapiens, UniProt P42685); assay: KINOMEscan; type: binding; details: 1 μM
T9 construct: purchased Eurofins DiscoverX Corporation
T9 sequence (P42685 whole entry): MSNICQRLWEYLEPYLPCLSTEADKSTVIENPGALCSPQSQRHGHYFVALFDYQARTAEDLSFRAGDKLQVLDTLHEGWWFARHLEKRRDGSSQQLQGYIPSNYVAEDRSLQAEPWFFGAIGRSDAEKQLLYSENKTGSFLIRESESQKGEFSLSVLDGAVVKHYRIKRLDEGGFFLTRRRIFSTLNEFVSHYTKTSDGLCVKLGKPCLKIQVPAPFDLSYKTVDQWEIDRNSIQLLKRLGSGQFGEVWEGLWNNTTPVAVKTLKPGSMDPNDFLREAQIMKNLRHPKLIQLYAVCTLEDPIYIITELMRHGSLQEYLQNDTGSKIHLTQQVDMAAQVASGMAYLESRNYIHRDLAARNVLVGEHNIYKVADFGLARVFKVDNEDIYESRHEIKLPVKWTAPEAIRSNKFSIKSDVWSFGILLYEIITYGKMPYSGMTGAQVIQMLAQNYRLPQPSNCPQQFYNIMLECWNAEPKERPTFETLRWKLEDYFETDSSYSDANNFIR

[22] = molecular target: ASK1 (Homo sapiens, UniProt Q99683); assay: KINOMEscan; type: binding; details: 1 μM
[23] = molecular target: PYK2 (Homo sapiens, UniProt Q14289); assay: KINOMEscan; type: binding; details: 1 μM
[24] = molecular target: CDKL1 (Homo sapiens, UniProt Q00532); assay: KINOMEscan; type: binding; details: 1 μM
Sequence of CDKL1 (Q00532 whole entry): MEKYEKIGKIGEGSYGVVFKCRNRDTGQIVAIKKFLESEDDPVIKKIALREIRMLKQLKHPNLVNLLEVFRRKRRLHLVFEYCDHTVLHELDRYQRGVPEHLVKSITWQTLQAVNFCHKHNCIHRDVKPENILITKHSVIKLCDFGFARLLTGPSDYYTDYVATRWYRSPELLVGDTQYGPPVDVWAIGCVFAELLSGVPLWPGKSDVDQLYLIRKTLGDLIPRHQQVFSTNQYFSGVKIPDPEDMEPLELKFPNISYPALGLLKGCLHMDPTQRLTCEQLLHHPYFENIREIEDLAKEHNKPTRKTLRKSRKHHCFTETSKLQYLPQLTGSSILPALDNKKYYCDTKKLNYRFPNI

[25] = molecular target: T10, TGFBR1 (Homo sapiens, UniProt P36897); assay: KINOMEscan; type: binding; details: 1 μM
T10 construct: purchased Eurofins DiscoverX Corporation

[26] = molecular target: FGFR2 (Homo sapiens, UniProt P21802); assay: KINOMEscan; type: binding; details: 1 μM
Sequence of FGFR2 (P21802 22-821): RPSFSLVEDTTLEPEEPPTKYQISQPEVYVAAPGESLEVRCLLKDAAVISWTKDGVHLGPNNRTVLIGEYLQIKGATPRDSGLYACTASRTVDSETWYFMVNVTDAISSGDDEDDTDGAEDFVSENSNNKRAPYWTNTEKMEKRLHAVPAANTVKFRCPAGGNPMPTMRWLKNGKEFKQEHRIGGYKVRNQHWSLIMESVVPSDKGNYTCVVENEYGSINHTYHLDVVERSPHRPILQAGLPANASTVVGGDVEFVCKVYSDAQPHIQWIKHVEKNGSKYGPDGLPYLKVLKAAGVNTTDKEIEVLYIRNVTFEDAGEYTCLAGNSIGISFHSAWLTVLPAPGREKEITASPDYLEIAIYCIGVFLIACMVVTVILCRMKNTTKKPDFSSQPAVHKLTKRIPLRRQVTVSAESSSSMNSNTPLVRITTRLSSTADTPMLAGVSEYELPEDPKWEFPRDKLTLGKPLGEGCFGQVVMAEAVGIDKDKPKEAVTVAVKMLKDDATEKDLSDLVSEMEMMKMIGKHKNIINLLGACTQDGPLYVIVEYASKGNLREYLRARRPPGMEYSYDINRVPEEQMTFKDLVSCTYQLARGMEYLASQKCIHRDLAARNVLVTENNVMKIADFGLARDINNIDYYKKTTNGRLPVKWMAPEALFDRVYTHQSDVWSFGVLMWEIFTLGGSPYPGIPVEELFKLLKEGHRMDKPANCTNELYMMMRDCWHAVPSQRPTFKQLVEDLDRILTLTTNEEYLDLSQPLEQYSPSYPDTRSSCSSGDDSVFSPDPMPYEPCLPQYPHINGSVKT

[27] = molecular target: AURKA (Homo sapiens, UniProt O14965); assay: KINOMEscan; type: binding; details: 1 μM
Sequence of AURKA (O14965 whole entry): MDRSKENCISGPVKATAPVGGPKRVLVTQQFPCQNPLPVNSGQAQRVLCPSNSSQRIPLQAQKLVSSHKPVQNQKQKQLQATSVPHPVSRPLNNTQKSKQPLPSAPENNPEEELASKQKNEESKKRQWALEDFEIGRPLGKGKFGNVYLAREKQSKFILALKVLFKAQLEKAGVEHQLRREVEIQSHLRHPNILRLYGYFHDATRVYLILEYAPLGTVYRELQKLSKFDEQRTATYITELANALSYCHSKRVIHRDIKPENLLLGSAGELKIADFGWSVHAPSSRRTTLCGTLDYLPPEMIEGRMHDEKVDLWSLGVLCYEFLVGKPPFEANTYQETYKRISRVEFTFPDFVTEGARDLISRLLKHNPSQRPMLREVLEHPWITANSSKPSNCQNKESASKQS

[28] = molecular target: PDGFRB (Homo sapiens, UniProt P09619); assay: KINOMEscan; type: binding; details: 1 μM
Sequence of PDGFRB (P09619 33-1106): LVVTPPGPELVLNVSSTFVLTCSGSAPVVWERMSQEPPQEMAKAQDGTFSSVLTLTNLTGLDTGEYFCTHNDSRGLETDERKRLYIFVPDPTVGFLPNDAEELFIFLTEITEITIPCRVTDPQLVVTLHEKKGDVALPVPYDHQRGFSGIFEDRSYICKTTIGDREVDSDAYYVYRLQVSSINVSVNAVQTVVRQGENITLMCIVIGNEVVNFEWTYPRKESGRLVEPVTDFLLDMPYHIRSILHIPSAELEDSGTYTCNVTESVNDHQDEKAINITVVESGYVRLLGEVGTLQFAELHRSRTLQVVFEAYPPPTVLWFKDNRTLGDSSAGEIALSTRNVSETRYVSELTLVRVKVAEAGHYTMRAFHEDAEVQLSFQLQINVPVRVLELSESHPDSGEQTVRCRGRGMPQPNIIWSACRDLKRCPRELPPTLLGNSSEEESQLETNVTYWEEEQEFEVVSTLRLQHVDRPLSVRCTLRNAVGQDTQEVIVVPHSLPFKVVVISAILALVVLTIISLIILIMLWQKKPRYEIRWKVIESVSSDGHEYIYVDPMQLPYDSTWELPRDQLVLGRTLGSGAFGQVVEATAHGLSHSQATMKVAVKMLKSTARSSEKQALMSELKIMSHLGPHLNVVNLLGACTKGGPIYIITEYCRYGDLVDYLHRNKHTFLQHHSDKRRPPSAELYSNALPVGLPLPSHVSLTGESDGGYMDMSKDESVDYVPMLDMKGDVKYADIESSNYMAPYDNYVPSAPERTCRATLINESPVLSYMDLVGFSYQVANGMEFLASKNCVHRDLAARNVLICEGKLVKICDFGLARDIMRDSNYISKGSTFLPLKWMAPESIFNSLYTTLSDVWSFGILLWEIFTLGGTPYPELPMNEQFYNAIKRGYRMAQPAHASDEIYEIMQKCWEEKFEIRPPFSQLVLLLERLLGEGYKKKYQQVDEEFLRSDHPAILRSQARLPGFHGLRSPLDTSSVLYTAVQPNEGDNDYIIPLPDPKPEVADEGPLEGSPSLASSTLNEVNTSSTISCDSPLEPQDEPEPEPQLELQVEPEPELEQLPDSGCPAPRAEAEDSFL

[29] = molecular target: CDK4 (Homo sapiens, UniProt P11802); assay: KINOMEscan; type: binding; details: 1 μM
[30] = molecular target: T11, MINK (Homo sapiens, UniProt Q8N4C8); assay: KINOMEscan; type: binding; details: 1 μM
T11 construct: purchased Eurofins DiscoverX Corporation

[31] = molecular target: T12, MST1 (Homo sapiens, UniProt Q13043); assay: KINOMEscan; type: binding; details: 1 μM
T12 construct: purchased Eurofins DiscoverX Corporation

Compound: C=CC(=O)Nc1ccc(OC)c(Nc2cc(-c3[nH]c(CC)nc3-c3cccc(NC(=O)c4cccc5c4NC(=O)c4ccccc4N5)c3)ccn2)c1 [Compound 4]
- POC [1]: 100% of control
- POC [2]: 89% of control
- POC [3]: 98% of control
- POC [4]: 100% of control
- POC [5]: 100% of control
- POC [6]: 50% of control
- POC [7]: 56% of control
- POC [8]: 94% of control
- POC [9]: 100% of control
- POC [10]: 9.5% of control
- POC [11]: 18% of control
- Ki [12]: 1600 ± 100 nM
- kinact [12]: 0.00167 s⁻¹
- kinact/KI [12]: 1070 ± 40 M⁻¹ s⁻¹
- POC [13]: 100% of control
- POC [14]: 100% of control
- POC [15]: 8% of control
- POC [16]: 100% of control
- POC [17]: 40% of control
- POC [18]: 93% of control
- POC [19]: 91% of control
- POC [20]: 62% of control
- POC [21]: 20% of control
- POC [22]: 100% of control
- POC [23]: 100% of control
- POC [24]: 100% of control
- POC [25]: 75% of control
- POC [26]: 100% of control
- POC [27]: 90% of control
- POC [28]: 100% of control
- POC [29]: 100% of control
- POC [30]: 10% of control
- POC [31]: 6% of control
